These are literature values, as cited in US8871800B2, “Statin and omega-3 fatty acids for reduction of Apo-B levels” (GlaxoSmithKline, LLC, priority 2006, dated 2014).

Series [1] has as its system patients with hyperlipemia. The settings on record: atorvastatin monotherapy 10 mg/day, 5 weeks; compared to baseline.
For series [2], the system named is obese, insulin-resistant men with dyslipidemia. Conditions: atorvastatin monotherapy 40 mg/day, 6 weeks.
Series [3] deals with patients with hypercholesterolemia. Conditions: lovastatin monotherapy 40 mg/day, 6 weeks.
Series [4] has as its system patients with familial hypercholesterolemia. Conditions: monotherapy (6 g/day Omacor or 40 mg/day lovastatin), 6 weeks.

Regarding `CC(C)c1c(C(=O)Nc2ccccc2)c(-c2ccccc2)c(-c2ccc(F)cc2)n1CC[C@@H](O)C[C@@H](O)CC(=O)O` [atorvastatin], in series [1], the Apo-B levels entry is listed as “significantly decreased”, the HDL-C levels entry is listed as “significantly increased”, the LDL-C levels result is listed as “significantly decreased” and the triglyceride levels entry is “significantly decreased”. For the same compound, in series [2], the Apo-B levels entry is “significantly decreased”.

As for `CC[C@H](C)C(=O)O[C@H]1C[C@@H](C)C=C2C=C[C@H](C)[C@H](CC[C@@H]3C[C@@H](O)CC(=O)O3)[C@H]21` [lovastatin], in series [3], the Apo-B levels entry is recorded as “significantly reduced”, the HDL-C levels result is recorded as “significant increases”, the LDL-C levels result was “significant decreases” and the triglyceride levels entry is given as “significant decreases”. In addition, in series [4], the Apo-B levels entry is listed as “significantly reduced”.
